Reference: patent US7285555B2, “6-aryl-7-halo-imidazo[1,2-a]pyrimidines as anticancer agents” (Wyeth Holdings Corporation, priority 2003, dated 2007)

Legend:
[1] = test system: highly purified tubulin (tubulin heterodimer); experiment: Competitive binding test procedure, [3H]colchicine; parameters: species or system bovine; conditions: competitor 100 μM, [3H]colchicine 50 nM
Protocol: (§1) Medium is RPMI-1640 with L-glutamine, supplemented with 10% heat-inactivated fetal calf serum, 100 units/mL penicillin, and 100 μg/mL streptomycin (Gibco, Grand Island, N.Y.). Microtubule-associated protein (MAP)-rich tubulin, containing about 70% tubulin and 30% MAPs (#ML113), and highly purified tubulin (>99% pure, #TL238), both from bovine brain, are obtained from Cytoskeleton, Inc., Denver, Colo. PEM buffer (80 mM piperazine-N,N′-bis[2-ethanesulfonic acid], pH 6.9, 1 mM ethylene glycol-bis(β-aminoethyl ether)-N,N,N′,N′-tetraacetic acid, 1 mM magnesium chloride) and guanosine 5′-triphosphate (GTP) are also obtained from Cytoskeleton. [^3H]paclitaxel, specific activity 14.7 Ci/mmol, is purchased from Moravek Biochemicals (Brea, Calif.). [^3H]vinblastine, specific activity 9.60 Ci/mmol and MicroSpin G-50 columns are obtained from Amersham Biosciences (Piscataway, N.J.). […] Other reagents are obtained from Sigma (St. Louis, Mo.).
(§2) The binding of examples of this invention to highly purified tubulin is studied by competitive inhibition methods. […] To study possible competition at the taxane site, on the other hand, polymerized tubulin (microtubules) is used because paclitaxel binds preferentially to microtubules.
(§3) Highly purified tubulin is dissolved in PEM buffer without GTP and used at a final concentration of 1.0 to 1.3 mg/ml (10 to 13 μM). […] These solutions are incubated at 240 for 1 hr and then applied to MicroSpin G-50 columns which are centrifuged for 2 min at 3000 rpm in an Eppendorf 5415C microfuge. An aliquot of each column effluent (containing tubulin and bound radioligand) is mixed with scintillation fluid and counted in a liquid scintillation spectrometer. […] Quadruplicates are averaged, and the ability of the competitor to inhibit the binding of the radioligand is expressed as a percentage of control binding in the absence of any competitor.

pure tubulin = experiment: Tubulin polymerization test procedure with pure tubulin; format: biochemical, bovine; conditions: for polymerization of pure tubulin without GTP (in words): pure tubulin without added GTP
Protocol: as §1
The procedure with pure tubulin is similar except for the following changes. […] The supernatant after centrifugation is dispensed to a ½-area 96-well plate already containing compounds. Each compound is tested in duplicate at a final concentration of 24.3 μM. The plate reader μs thermostated at 35°.

[2] = test system: highly purified tubulin (tubulin heterodimer); experiment: Competitive binding test procedure, [3H]vinblastine; parameters: species or system bovine; conditions: competitor 100 μM, [3H]vinblastine 100 nM
Protocol: as §1, §2, §3

[3] = test system: polymerized tubulin (microtubules); experiment: Competitive binding test procedure, [3H]paclitaxel; parameters: species or system bovine; conditions: [3H]paclitaxel 2.1 μM
Protocol: as §1, §2
For competition with [^3H]paclitaxel, highly purified tubulin is dissolved in PEM buffer containing 0.75 M glutamate and 25 μM dideoxy-GTP; final protein concentration is 0.25 to 0.35 mg/mL (2.5 to 3.5 μM). These conditions foster the rapid formation of short, stable microtubule polymers (Hamel, E., del Campo, A. A., and Lin, C. M. Stability of tubulin polymers formed with dideoxyguanosine nucleotides in the presence and absence of microtubule-associated proteins. J. Biol. Chem., 259: 2501-2508, 1984). […] The reactions are then centrifuged at top speed in an Eppendorf 5415C microfuge for 20 min at room temperature in order to pellet the microtubule protein. Triplicate aliquots of each supernatant are mixed with scintillation fluid and counted in a liquid scintillation spectrometer. From the amount of radioactivity in the supernatants and the measured total starting radioactivity, the amount of [^3H]paclitaxel bound to pelleted microtubule protein is calculated. The ability of each competitor to inhibit radioligand binding to pelleted protein is expressed as a percent of controls without any competitor.

MAP-rich tubulin = experiment: Tubulin polymerization test procedure with MAP-rich tubulin; format: biochemical, bovine; conditions: MAP-rich tubulin with 1 mM GTP, compound 0.3 μM, at 20 min
Protocol: as §1
MAP-rich tubulin is dissolved in ice-cold PEM buffer containing 1 mM GTP (GPEM buffer) at a concentration of 1.3 mg/mL. The solution is centrifuged at top speed in an Eppendorf model 5415C microcentrifuge (Brinkmann Instruments, Westbury, N.Y.) for 10 min at 40 immediately before use. The tubulin solution is added to wells of a ½-area 96-well plate (Costar No. 3696, Corning, Inc., Corning, N.Y.) already containing the compounds of interest. Each compound is tested in duplicate at a final concentration of 0.3 μM in a volume of 110 μL per well. The final DMSO concentration in all wells is 0.3%. Control reactions, which receive compound solvent only, are done in quadruplicate. The plate is put in a SpectraMax Plus plate reader (Molecular Devices Corp. Sunnyvale, Calif.) thermostated at 240 and the absorbance of each well at 340 nm, a measure of the appearance of turbidity due to tubulin polymer formation, is determined every minute for 60 minutes. The absorbance at time 0 for each well is subtracted from each of the subsequent absorbance readings for that well, and then the duplicates are averaged.
In this assay, control reactions with MAP-rich tubulin show an S-shaped absorbance profile characterized by three phases: first, a lag phase during which no change in absorbance occurs; second, a polymerization phase in which absorbance increases; and third, a plateau phase in which absorbance has reached a maximum and little or no further change occurs. Polymerization enhancers such as paclitaxel and docetaxel shorten or eliminate the lag phase, increase the rate of the polymerization phase, and often increase the height of the plateau. […] This has been expressed quantitatively in Table 6 by dividing the mean A340 of each sample at 20 min by the mean A340 of the control at 20 min to give a fold enhancement over control. […]

| [3H]Colchicine binding, Mean, percent of binding to control without competitor [1] [%] | [3H]Colchicine binding, Mean, percent of binding to control without competitor ([1]; listed as example 6) | [3H]Vinblastine binding, Mean, percent of binding to control without competitor [2] [%] | [3H]Paclitaxel binding, Mean, percent of binding to control without competitor ([3]; competitor 20 μM) [%] | [3H]Paclitaxel binding, Mean, percent of binding to control without competitor ([3]; competitor 20 μM, listed as example 6) | [3H]Paclitaxel binding, Mean, percent of binding to control without competitor ([3]; competitor unlabeled paclitaxel 5 μM) [%] | Structure (SMILES) | polymerization of pure tubulin without GTP (in words) (pure tubulin) | A340 at 0 min (pure tubulin; pure tubulin, no added GTP, compound 24.3 μM, 0 min) | A340 at 5 min (pure tubulin; pure tubulin, no added GTP, compound 24.3 μM, 5 min) | A340 at 10 min (pure tubulin; pure tubulin, no added GTP, compound 24.3 μM, 10 min) | A340 at 15 min (pure tubulin; pure tubulin, no added GTP, compound 24.3 μM, 15 min) | A340 at 20 min (pure tubulin; pure tubulin, no added GTP, compound 24.3 μM, 20 min) | A340 Compound / A340 Control (fold enhancement over control) (MAP-rich tubulin) |
| --- | --- | --- | --- | --- | --- | --- | --- | --- | --- | --- | --- | --- | --- |
| 84 | does not inhibit | 17 | 92 | does not inhibit | – | CN(C)CCCOc1cc(F)c(-c2c(Cl)nc3nccn3c2C2CCCCCC2)c(F)c1 [Example 6, 3-[4-(7-Chloro-5-cycloheptylimidazo[1,2-a]pyrimidin-6-yl)-3,5-difluorophenoxy]-N,N-dimethylpropan-1-amine] | induces polymerization | 0 | 0.15 | 0.19 | 0.19 | 0.19 | 1.7 |
| 93 | – | 92 | – | – | 35 | CC(=O)O[C@H]1C(=O)[C@@]2(C)[C@H]([C@H](OC(=O)c3ccccc3)[C@]3(O)C[C@H](OC(=O)[C@H](O)[C@@H](NC(=O)c4ccccc4)c4ccccc4)C(C)=C1C3(C)C)[C@]1(OC(C)=O)CO[C@@H]1C[C@@H]2O [Paclitaxel, reference compound] | able to induce polymerization | – | – | – | – | – | 1.8 |
